Laboratory results reported in ChEMBL document CHEMBL5385861, “Development of novel hydrazidoarylaminopyrimidine-based BTK/FLT3 dual inhibitors with potent in vivo anti-hematological malignancies effects” (Eur J Med Chem, 2023).
The source made the active and inactive calls. The rule behind the calls is not given here.

Assays:
MV4-11 [1] = assay: cells; conditions: Homo sapiens, MV4-11, 72 h
[2] = biological target: RAF proto-oncogene serine/threonine-protein kinase (Homo sapiens) (UniProt P04049); assay: Inhibition of c-RAF (unknown origin) at 0.2 uM incubated for 40 mins by radiometric kinase assay relative to control
[3] = Acute toxicity in ICR mouse assessed as animal survival at 585.9 mg/kg, ip measured for 2 weeks; type: organism-based; conditions: in vivo
[4] = biological target: Serine/threonine-protein kinase PLK2 (Homo sapiens) (UniProt Q9NYY3); assay: Inhibition of SNK (unknown origin) at 0.2 uM incubated for 40 mins by radiometric kinase assay relative to control
MV4-11 [5] = assay: Antitumor activity against human MV4-11 cells xenografted NOD/SCID mouse assessed as reduction in tumor weight at 20 mg/kg, ip administered once daily for 21 days; type: functional; conditions: time 21 day
MV4-11 [6] = assay: Antitumor activity against human MV4-11 cells xenografted NOD/SCID mouse assessed as increase in tumor necrotic cells at 10 mg/kg, ip administered once daily for 21 days by H and E staining analysis; type: functional, organism-based; conditions: time 21.0 day
[7] = biological target: Death-associated protein kinase 1 (Homo sapiens) (UniProt P53355); assay: Inhibition of DAPK1 (unknown origin) at 0.2 uM incubated for 40 mins by radiometric kinase assay relative to control
JeKo-1 [8] = assay: Induction of apoptosis in human JeKo-1 cells assessed as necrotic cells at 750 nM incubated for 72 hrs by Annexin VFITC/PI staining based flow cytometry analysis (reference value: 0.67%); type: functional
MV4-11 [9] = assay: Potency index, ratio of sorafenib IC50 to test compound IC50 for antiproliferative activity against human MV4-11 cells; type: functional
JeKo-1 [10] = assay: Potency index, ratio of spebrutinib IC50 to test compound IC50 for antiproliferative activity against human JeKo-1 cells; type: functional
JeKo-1 [11] = assay: cells; conditions: Homo sapiens, JeKo-1, 72 h
Description: Antiproliferative activity against human JeKo-1 cells assessed as inhibition of cell growth incubated for 72 hrs by CCK8 assay

[12] = Toxicity in NOD/SCID mouse xenografted with human JeKo-1 cells assessed as effect on body weight at 25 to 50 mg/kg, ip measured for 16 days; type: organism-based; conditions: in vivo, 384 h, dose 25-50 mg/kg, time 16 day
MV4-11 [13] = assay: Antitumor activity against human MV4-11 cells xenografted in NOD/SCID mouse assessed as tumor growth inhibition at 20 mg/kg ip administered once daily for 21 days; type: functional; conditions: MV4-11, 504 h, time 21 day, read-out: TGI
[14] = biological target: Death-associated protein kinase 3 (Homo sapiens) (UniProt O43293); assay: Inhibition of ZIPK (unknown origin) at 0.2 uM incubated for 40 mins by radiometric kinase assay relative to control
JeKo-1 [15] = assay: Potency index, ratio of ibrutinib IC50 to test compound IC50 for antiproliferative activity against human JeKo-1 cells; type: functional
[16] = Acute toxicity in ip dosed ICR mouse assessed as change in routine blood analysis at 200 mg/kg, ip measured for 2 weeks; type: organism-based; conditions: in vivo, 336 h
[17] = biological target: Tyrosine-protein kinase CSK (Homo sapiens) (UniProt P41240); assay: Inhibition of CSK (unknown origin) at 0.2 uM incubated for 40 mins by radiometric kinase assay relative to control
K562 [18] = assay: Potency index, ratio of ibrutinib IC50 to test compound IC50 for antiproliferative activity against human K562 cells; type: functional
MOLT-4 = assay: cells; conditions: Homo sapiens, MOLT-4, 72 h
Description: Antiproliferative activity against human MOLT-4 cells assessed as inhibition of cell growth incubated for 72 hrs by CCK8 assay

JeKo-1 [19] = assay: Induction of apoptosis in human JeKo-1 cells assessed as downregulation of Bcl-2 protein expression at 30 to 750 nM incubated for 72 hrs by Western blot analysis; type: functional, cell-based; conditions: dose 30-750 nM
[20] = biological target: Epidermal growth factor receptor (Homo sapiens) (UniProt P00533); assay: Inhibition of EGFR (unknown origin) at 0.2 uM incubated for 40 mins by radiometric kinase assay relative to control
[21] = biological target: Serine/threonine-protein kinase pim-1 (Homo sapiens) (UniProt P11309); assay: Inhibition of PIM-1 (unknown origin) at 0.2 uM incubated for 40 mins by radiometric kinase assay relative to control
K562 [22] = assay: Potency index, ratio of spebrutinib IC50 to test compound IC50 for antiproliferative activity against human K562 cells; type: functional
[23] = biological target: Mitogen-activated protein kinase 9 (Homo sapiens) (UniProt P45984); assay: Inhibition of JNK2alpha2 (unknown origin) at 0.2 uM incubated for 40 mins by radiometric kinase assay relative to control
JeKo-1 [24] = assay: Induction of apoptosis in human JeKo-1 cells assessed as late apoptotic cells at 150 nM incubated for 72 hrs by Annexin VFITC/PI staining based flow cytometry analysis (reference value: 1.42%); type: functional
[25] = biological target: Dual specificity mitogen-activated protein kinase kinase 6 (Homo sapiens) (UniProt P52564); assay: Inhibition of MKK6 (unknown origin) at 0.2 uM incubated for 40 mins by radiometric kinase assay relative to control
[26] = biological target: Serine-protein kinase ATM (Homo sapiens) (UniProt Q13315); assay: Inhibition of ATM (unknown origin) at 0.2 uM incubated for 40 mins by radiometric kinase assay relative to control
[27] = biological target: Receptor-type tyrosine-protein kinase FLT3 (Homo sapiens, UniProt P36888); assay: Inhibition of FLT3 (unknown origin) incubated for 40 mins by radiometric kinase assay
[28] = biological target: Serine/threonine-protein kinase PLK1 (Homo sapiens) (UniProt P53350); assay: Inhibition of PLK1 (unknown origin) at 0.2 uM incubated for 40 mins by radiometric kinase assay relative to control
JeKo-1 [29] = assay: Antitumor activity against human JeKo-1 cells xenografted in ip dosed NOD/SCID mouse assessed as suppression of tumor growth measured for 16 days; type: functional, organism-based; conditions: dose 25-50 mg/kg, time 16.0 day
[30] = system: Tyrosine-protein kinase Tec; assay: Inhibition of TEC (unknown origin) at 0.2 uM incubated for 40 mins by radiometric kinase assay relative to control; conditions: Homo sapiens
JeKo-1 [31] = assay: Induction of apoptosis in human JeKo-1 cells assessed as late apoptotic cells at 750 nM incubated for 72 hrs by Annexin VFITC/PI staining based flow cytometry analysis (reference value: 1.42%); type: functional
[32] = biological target: Serine/threonine-protein kinase mTOR (Homo sapiens) (UniProt P42345); assay: Inhibition of mTOR (unknown origin) at 0.2 uM incubated for 40 mins by radiometric kinase assay relative to control
JeKo-1 [33] = assay: Induction of apoptosis in human JeKo-1 cells assessed as early apoptotic cells at 150 nM incubated for 72 hrs by Annexin VFITC/PI staining based flow cytometry analysis (reference value: 3.10%); type: functional
[34] = biological target: Vascular endothelial growth factor receptor 3 (Homo sapiens) (UniProt P35916); assay: Inhibition of FLT4 (unknown origin) at 0.2 uM incubated for 40 mins by radiometric kinase assay relative to control
MV4-11 [35] = assay: Potency index, ratio of spebrutinib IC50 to test compound IC50 for antiproliferative activity against human MV4-11 cells; type: functional

Sequence of Vascular endothelial growth factor receptor 3 (Homo sapiens) (P35916 whole entry): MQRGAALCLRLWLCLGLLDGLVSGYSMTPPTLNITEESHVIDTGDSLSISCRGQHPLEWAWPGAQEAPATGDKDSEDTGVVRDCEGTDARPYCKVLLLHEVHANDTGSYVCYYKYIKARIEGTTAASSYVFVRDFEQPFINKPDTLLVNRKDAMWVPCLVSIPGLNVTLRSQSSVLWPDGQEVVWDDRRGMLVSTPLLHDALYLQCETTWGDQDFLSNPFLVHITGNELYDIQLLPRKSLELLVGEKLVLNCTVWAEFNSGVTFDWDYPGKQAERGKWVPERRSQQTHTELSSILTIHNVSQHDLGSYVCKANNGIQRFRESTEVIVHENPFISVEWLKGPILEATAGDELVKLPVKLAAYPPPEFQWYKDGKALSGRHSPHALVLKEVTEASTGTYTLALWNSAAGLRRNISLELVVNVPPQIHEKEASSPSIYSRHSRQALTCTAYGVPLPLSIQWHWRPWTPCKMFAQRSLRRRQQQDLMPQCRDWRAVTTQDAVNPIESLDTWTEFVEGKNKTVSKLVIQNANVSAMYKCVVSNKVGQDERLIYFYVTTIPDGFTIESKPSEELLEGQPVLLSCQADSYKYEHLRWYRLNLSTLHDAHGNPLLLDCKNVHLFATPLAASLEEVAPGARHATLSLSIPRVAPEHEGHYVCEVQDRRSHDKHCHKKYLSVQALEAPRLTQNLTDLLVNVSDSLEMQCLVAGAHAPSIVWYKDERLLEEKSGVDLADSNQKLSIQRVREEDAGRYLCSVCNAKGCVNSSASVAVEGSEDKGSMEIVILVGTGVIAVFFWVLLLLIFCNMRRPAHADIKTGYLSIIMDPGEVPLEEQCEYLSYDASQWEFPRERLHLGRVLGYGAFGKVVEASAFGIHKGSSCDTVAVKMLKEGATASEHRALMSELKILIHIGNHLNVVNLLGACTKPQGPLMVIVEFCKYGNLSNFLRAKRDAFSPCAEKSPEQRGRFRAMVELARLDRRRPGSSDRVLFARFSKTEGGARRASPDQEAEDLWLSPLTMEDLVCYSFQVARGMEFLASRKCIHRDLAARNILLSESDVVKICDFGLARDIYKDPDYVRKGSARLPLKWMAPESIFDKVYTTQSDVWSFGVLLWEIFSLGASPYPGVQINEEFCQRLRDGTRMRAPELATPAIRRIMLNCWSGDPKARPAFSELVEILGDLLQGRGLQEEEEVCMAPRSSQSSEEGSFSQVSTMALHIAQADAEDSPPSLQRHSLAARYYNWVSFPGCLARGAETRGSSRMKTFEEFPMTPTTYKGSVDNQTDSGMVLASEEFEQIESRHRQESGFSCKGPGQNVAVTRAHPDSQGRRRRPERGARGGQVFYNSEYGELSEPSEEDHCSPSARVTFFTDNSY
Sequence of Serine/threonine-protein kinase pim-1 (Homo sapiens) (P11309 whole entry, looked up): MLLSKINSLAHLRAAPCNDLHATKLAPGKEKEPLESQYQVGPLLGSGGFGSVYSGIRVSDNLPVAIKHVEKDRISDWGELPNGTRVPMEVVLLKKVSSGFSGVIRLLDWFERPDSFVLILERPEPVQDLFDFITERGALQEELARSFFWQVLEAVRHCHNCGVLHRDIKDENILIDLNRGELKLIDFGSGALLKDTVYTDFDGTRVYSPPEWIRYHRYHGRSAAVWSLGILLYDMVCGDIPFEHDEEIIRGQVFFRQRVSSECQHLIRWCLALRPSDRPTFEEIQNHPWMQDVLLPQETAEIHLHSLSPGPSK
Sequence of Epidermal growth factor receptor (Homo sapiens) (P00533 whole entry): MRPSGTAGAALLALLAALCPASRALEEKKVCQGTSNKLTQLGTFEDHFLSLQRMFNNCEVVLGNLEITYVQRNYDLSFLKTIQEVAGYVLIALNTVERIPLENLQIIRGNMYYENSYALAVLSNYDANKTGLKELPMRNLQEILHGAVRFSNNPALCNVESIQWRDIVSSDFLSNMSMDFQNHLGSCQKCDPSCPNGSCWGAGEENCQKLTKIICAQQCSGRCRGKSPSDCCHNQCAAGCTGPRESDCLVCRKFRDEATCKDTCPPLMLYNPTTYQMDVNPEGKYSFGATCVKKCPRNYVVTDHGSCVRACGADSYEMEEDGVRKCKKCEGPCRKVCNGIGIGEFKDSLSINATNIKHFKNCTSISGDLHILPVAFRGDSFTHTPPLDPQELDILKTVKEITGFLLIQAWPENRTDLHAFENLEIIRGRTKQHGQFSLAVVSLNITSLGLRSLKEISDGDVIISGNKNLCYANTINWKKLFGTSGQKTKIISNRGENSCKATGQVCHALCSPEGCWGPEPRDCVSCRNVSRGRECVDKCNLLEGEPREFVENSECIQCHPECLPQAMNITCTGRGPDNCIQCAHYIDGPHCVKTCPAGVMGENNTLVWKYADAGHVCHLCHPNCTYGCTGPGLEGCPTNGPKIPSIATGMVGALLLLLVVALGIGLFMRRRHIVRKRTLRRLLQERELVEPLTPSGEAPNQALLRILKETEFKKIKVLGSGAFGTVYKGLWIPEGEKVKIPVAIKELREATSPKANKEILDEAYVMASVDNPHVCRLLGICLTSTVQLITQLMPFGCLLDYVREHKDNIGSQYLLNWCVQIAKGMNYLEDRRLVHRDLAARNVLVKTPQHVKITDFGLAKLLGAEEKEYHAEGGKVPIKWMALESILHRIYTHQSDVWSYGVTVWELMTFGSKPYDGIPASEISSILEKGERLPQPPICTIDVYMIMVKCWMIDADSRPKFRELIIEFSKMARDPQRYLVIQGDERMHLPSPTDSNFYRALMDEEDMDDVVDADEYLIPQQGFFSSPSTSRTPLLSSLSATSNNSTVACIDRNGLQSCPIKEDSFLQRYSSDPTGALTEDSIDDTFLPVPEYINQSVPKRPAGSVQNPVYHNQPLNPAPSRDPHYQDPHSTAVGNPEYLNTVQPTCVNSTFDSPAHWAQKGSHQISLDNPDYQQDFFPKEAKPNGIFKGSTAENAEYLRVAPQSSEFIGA
Sequence of Death-associated protein kinase 3 (Homo sapiens) (O43293 whole entry, looked up): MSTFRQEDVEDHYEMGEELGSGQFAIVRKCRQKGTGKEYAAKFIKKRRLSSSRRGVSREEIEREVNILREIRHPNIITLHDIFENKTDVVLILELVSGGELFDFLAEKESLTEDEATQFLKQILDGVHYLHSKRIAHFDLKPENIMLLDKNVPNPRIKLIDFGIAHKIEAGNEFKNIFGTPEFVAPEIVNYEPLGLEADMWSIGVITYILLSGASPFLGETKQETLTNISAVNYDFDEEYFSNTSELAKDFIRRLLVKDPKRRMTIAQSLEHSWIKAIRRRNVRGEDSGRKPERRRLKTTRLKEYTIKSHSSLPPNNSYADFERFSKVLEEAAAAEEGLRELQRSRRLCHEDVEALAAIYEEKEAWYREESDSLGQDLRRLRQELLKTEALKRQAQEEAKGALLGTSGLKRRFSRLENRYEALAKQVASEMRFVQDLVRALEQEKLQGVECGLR
Sequence of RAF proto-oncogene serine/threonine-protein kinase (Homo sapiens) (P04049 whole entry): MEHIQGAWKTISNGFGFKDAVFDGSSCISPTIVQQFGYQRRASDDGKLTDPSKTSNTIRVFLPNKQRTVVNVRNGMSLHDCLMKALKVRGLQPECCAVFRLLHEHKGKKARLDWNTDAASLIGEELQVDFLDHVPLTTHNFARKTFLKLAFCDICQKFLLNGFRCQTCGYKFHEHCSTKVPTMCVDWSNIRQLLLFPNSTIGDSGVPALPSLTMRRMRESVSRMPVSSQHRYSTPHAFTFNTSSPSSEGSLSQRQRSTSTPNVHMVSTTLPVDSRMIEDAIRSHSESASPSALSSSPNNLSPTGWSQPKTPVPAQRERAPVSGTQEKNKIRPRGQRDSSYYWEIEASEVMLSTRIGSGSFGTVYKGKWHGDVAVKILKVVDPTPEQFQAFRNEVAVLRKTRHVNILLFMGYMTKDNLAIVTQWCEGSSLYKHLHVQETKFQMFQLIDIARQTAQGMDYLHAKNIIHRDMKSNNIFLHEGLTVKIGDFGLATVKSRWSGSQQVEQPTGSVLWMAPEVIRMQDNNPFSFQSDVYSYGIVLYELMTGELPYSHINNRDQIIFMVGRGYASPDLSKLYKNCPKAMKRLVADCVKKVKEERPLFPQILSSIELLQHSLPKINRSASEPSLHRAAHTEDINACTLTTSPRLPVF
Sequence of Dual specificity mitogen-activated protein kinase kinase 6 (Homo sapiens) (P52564 whole entry): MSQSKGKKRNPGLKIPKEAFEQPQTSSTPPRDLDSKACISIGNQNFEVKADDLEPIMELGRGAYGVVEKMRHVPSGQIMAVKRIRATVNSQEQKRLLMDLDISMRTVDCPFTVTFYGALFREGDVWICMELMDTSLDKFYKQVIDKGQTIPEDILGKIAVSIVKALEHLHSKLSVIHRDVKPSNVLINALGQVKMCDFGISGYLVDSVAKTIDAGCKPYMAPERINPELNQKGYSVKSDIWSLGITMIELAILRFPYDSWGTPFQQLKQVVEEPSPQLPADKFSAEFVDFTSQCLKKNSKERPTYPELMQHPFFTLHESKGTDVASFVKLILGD
Sequence of Mitogen-activated protein kinase 9 (Homo sapiens) (P45984 whole entry, looked up): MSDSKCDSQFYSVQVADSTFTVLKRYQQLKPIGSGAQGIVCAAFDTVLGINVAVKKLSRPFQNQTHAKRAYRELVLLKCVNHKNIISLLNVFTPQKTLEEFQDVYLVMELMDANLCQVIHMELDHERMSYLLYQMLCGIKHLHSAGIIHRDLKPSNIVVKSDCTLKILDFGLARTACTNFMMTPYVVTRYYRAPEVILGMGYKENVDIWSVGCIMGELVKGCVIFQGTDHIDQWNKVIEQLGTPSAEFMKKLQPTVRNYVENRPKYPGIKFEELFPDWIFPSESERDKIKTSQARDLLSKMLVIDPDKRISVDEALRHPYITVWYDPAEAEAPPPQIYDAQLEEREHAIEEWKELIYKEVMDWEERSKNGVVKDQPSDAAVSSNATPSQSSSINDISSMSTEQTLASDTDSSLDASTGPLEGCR

CN1CCN(c2ccc(Nc3ncc(F)c(Nc4ccccc4C(=O)NN)n3)cc2)CC1
IC50 (MV4-11 [1]): 3 nM
inhibition [2]: -10%
survival at 336 h [3]: 0%
inhibition [4]: 43%
Activity (MV4-11 [5]): 0.08 g
Activity (MV4-11 [6]): Active
inhibition [7]: -1%
Activity (JeKo-1 [8]): 0.11%
Ratio IC50 (MV4-11 [9]): 1.3
Ratio IC50 (JeKo-1 [10]): 8
IC50 (JeKo-1 [11]): 17 nM
Activity [12]: Non-Toxic
inhibition in vivo at 20 mg/kg (MV4-11 [13]): 100%
inhibition [14]: 26%
Ratio IC50 (JeKo-1 [15]): 6
Activity [16]: Non-Toxic
inhibition [17]: 6%
Ratio IC50 (K562 [18]): 6
IC50 (MOLT-4): 11 nM
Activity (JeKo-1 [19]): Active
inhibition [20]: 8%
inhibition [21]: 28%
Ratio IC50 (K562 [22]): 8
inhibition [23]: 11%
Activity (JeKo-1 [24]): 1.65%
inhibition [25]: 10%
inhibition [26]: -6%
IC50 [27]: 12 nM
inhibition [28]: 7%
Activity (JeKo-1 [29]): Dose-Dependent Effect
inhibition [30]: 47%
Activity (JeKo-1 [31]): 0.47%
inhibition [32]: -7%
Activity (JeKo-1 [33]): 25.6%
inhibition [34]: 100%
Ratio IC50 (MV4-11 [35]): 8
